Common to all, as to format: cell-based, human
For test [1], the system named is 201B7 cell line (iPS cells). Put plainly: Cardiomyocyte induction, conventional method (comparative example); cTNT-positive cells by flow cytometry. To be noted: Day 20; 1 μM IWP-3 with 10 ng/mL VEGF Day 4 to Day 8; no dissociation/reaggregation. The method, then:
Three days before differentiation induction (Day −3), the 201B7 cell line was treated with Collagenase type B solution (Roche) for 5 minutes, and the solution was then removed, followed by treating the cells with 0.25% trypsin-EDTA (Invitrogen) for 2 to 3 minutes. After washing the cells with PBS solution (Nacalai Tesque), the obtained iPS cells were detached with a cell scraper and recovered. The iPS cells were then plated on a well of a Matrigel-coated 6-well plate, and cultured in MEF (mouse fetal fibroblast)-conditioned medium (MEF-CM) for 3 days.
Subsequently (Day 0), treatment with Collagenase type B solution was carried out for 10 minutes. After removing the solution, the iPS cells were treated with 0.25% trypsin-EDTA for 1 to 2 minutes, and then detached with a cell scraper. STEMPRO 34 (Invitrogen) supplemented with 1% L-glutamine (Invitrogen), 150 μg/mL transferrin (Roche), 50 μg/mL ascorbic acid (Sigma), 3.9×10^−3% MTG (1-Thyoglycerol) (Sigma), 10 μM Rock inhibitor (Y-27632, Wako), and 2 ng/mL BMP4 (R&D) was added to the cells, and the cells were then divided into small clusters by pipetting. The resulting cell clusters were transferred to a well of a low-adhesion […], and culture was carried out at 37° C. under 5% oxygen to prepare embryoid bodies (EBs). […]
(§1) After the culture (Day 20), the obtained cells were evaluated. […]
Background: In flow cytometry, cells or beads pass a laser one at a time.

The subject of test [2] is MYH, 409B2, 606A1, 457C1 and KhES1 cell lines. Put plainly: IW and IWDS methods, timing of dissociation/reaggregation (2). To be noted: IW method; dissociation at d2.5 to d5; evaluated at d15. From the text: (§2) In the modified method for inducing cardiomyocytes (IW) and the IWDS method described above, the timing of the dissociation into single cells and the reaggregation carried out on Day 4 was changed to investigate the effect of the change on pluripotent stem cell lines (KhES1 cell line, KhES3 cell line, MYH cell line, 409B2 cell line, 427F1 cell line, 606A1 cell line, 610B1 cell line, 457C1 cell line, 604A1 cell line, and 648A1 cell line) (FIG. 8). The culture from Day 1 in STEMPRO 34 supplemented with 1% L-glutamine, 150 μg/mL transferrin, 50 μg/mL ascorbic acid, 3.9×10^−3% MTG, 18 ng/mL BMP4, 10 ng/mL bFGF, and 12 ng/mL activin A was carried out for various periods within the range of 1.5 days to 5 days. Thereafter, dissociation and reaggregation of the obtained cells were carried out. That is, dissociation of each cell line was carried out at various times between Day 2.5 (d2.5) and Day 6 (d6) after the induction at intervals of 6 hours, followed by reaggregation culture.
(§3) In the last step, the cells of each cell line were cultured under normal oxygen concentration until d15 in STEMPRO 34 supplemented with 1% L-glutamine, 150 μg/mL transferrin, 50 μg/mL ascorbic acid, 3.9×10^−3% MTG, 10 ng/mL VEGF, and 5 ng/mL bFGF, and evaluated based on the content of cTNT-positive cells.

Test [3] concerns 427F1, 610B1, 604A1, 648A1 and KhES3 cell lines. The test is described as above. Conditions: IW method; dissociation at d2.5 to d4; evaluated at d15.
Source text: as §2, §3

The test system of test [4] is 201B7 cell line (iPS cells). Kind of test: Modified method for inducing cardiomyocytes (IW); cTNT-positive cells by flow cytometry. To be noted: Day 20. On the procedure: After treatment of the 201B7 cell line with CTK solution (ReproCELL) for 2 minutes, the solution was removed. Subsequently, the cells were treated with Accumax (Innovative Cell Technologies) for 5 minutes, and dissociated into single cells by pipetting. The cells were recovered by centrifugation, and plated on a low-adhesion 96-well dish (Corning) at 2500 cells/well. Culture was carried out at 37° C. under 5% oxygen in STEMPRO 34 supplemented with 1% L-glutamine, 150 μg/mL transferrin, 50 μg/mL ascorbic acid (Sigma), 3.9×10^−3% MTG, 10 μM Rock inhibitor, 2 ng/mL BMP4 (R&D), and 0.50% Matrigel (Growth Factor Reduced), to allow formation of EBs (Day 0). It was found, in this culture, that the efficiency of induction of cardiomyocytes decreases in cases where the EB cells are formed from not more than 1000 cells or not less than 4000 cells per well.
On the next day (Day 1), an equal volume of STEMPRO 34 supplemented with 1% L-glutamine, 150 μg/mL transferrin, 50 μg/mL ascorbic acid, 3.9×10^−3% MTG, 18 ng/mL BMP4, 10 ng/mL bFGF, and 12 ng/mL activin A was added to the 96-well plate in which the EBs were cultured, and culture was carried out at 37° C. under 5% oxygen for 3 days.
Subsequently (Day 4), the obtained EBs were allowed to naturally precipitate, and the medium was removed. […]
as §1

In the case of `Cc1ccc2nc(NC(=O)CSc3nc4c(c(=O)n3-c3ccc(F)cc3)SCC4)sc2c1` [IWP-3], the “content of cTNT-positive cells” value in test [1] was 58.6%; in test [4] (dissociation/reaggregation on Day 4, 1 μM IWP-3 with 10 ng/mL VEGF for 4 days), 82.9%; in test [4] (no dissociation into single cells on Day 4, medium with 1 μM IWP-3 and 10 ng/mL VEGF) it was 69.3%. The “efficiency of cardiomyocyte induction (content of cTNT-positive cells)” value in test [2] and in test [3] was “high efficiency” throughout.

The values above are taken from patent US9822342B2, “Method of efficiently inducing cardiomyocytes” (KYOTO UNIVERSITY, priority 2013, dated 2017).
